Measured values as given in the supplement of paper PMC8967900.

What was measured:
Test in all cases: selective drug sensitivity score (sDSS, relative to normal bone marrow) (sDSS (score)); higher = more potent and effective on the cell line relative to normal bone marrow cells
Settings in all cases: 72 h
697 = system: 697
ALL-PO = system: ALL-PO
COG-LL-319h = system: COG-LL-319h
COG-LL-355h = system: COG-LL-355h
COG-LL-402h = system: COG-LL-402h
HPB-ALL = system: HPB-ALL
JURKAT = system: JURKAT
KASUMI-2 = system: KASUMI-2
KASUMI-9 = system: KASUMI-9
MN-60 = system: MN-60
MOLT-14 = system: MOLT-14
MOLT-16 = system: MOLT-16
MOLT-4 = system: MOLT-4
NALM-16 = system: NALM-16
NALM-6 = system: NALM-6
PEER = system: PEER
RCH-ACV = system: RCH-ACV
RPMI-8402 = system: RPMI-8402
SUP-B15 = system: SUP-B15
TMD5 = system: TMD5
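Also: ALL cell lines in 384-well plates, five doses spanning 10,000-fold, each plate scaled between vehicle and 100 µmol/L benzalkonium chloride controls, sDSS an adapted area-under-curve metric.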

Structure (SMILES) | selective drug sensitivity score 697 | selective drug sensitivity score (ALL-PO) | selective drug sensitivity score (COG-LL-319h) | selective drug sensitivity score (COG-LL-355h) | selective drug sensitivity score (COG-LL-402h) | selective drug sensitivity score (HPB-ALL) | selective drug sensitivity score (JURKAT) | selective drug sensitivity score (KASUMI-2) | selective drug sensitivity score (KASUMI-9) | selective drug sensitivity score (MN-60) | selective drug sensitivity score (MOLT-14) | selective drug sensitivity score (MOLT-16) | selective drug sensitivity score (MOLT-4) | selective drug sensitivity score (NALM-16) | selective drug sensitivity score (NALM-6) | selective drug sensitivity score (PEER) | selective drug sensitivity score (RCH-ACV) | selective drug sensitivity score (RPMI-8402) | selective drug sensitivity score (SUP-B15) | selective drug sensitivity score (TMD5)
C#Cc1cccc(Nc2ncnc3cc4c(cc23)OCCOCCOCCO4)c1 [Icotinib] (top concentration 10000 nM) | 3.2 | 0.7 | 1.8 | 0.1 | 0 | 0 | 0 | 2.9 | 4.9 | 0.6 | 0 | 2.2 | 0.2 | 0 | 0 | 0.7 | 1.2 | 2.3 | 1.2 | 7.5
CCOCc1nc2c(N)nc3ccccc3c2n1CC(C)(C)O [Resiquimod] (top concentration 10000 nM) | -4.62 | -4.92 | 5.68 | -4.92 | -4.32 | -4.92 | -4.52 | -4.92 | -4.92 | -1.82 | -4.92 | -3.22 | -4.92 | -4.92 | -4.42 | -4.92 | -4.92 | -4.92 | -1.22 | -4.92
Cc1cnc(NC(=O)Nc2cc(Br)c(C)cc2OC[C@@H]2CNCCO2)cn1 [Rabusertib] (top concentration 1000 nM) | -0.74 | 0.46 | 4.26 | 1.96 | 1.36 | -0.74 | -0.74 | -0.74 | -0.04 | 3.56 | 0.16 | -0.14 | -0.74 | -0.74 | 1.16 | -0.74 | 2.06 | 0.46 | -0.74 | -0.74
CC1(C)NC(=O)N(c2ccc([N+](=O)[O-])c(C(F)(F)F)c2)C1=O [Nilutamide] (top concentration 10000 nM) | 0.22 | -0.08 | -0.48 | -0.48 | -0.48 | -0.48 | 1.32 | -0.48 | -0.28 | -0.48 | -0.48 | 2.72 | -0.48 | -0.48 | 1.82 | 0.32 | -0.48 | -0.18 | -0.48 | 3.42
CC(C)Cn1cnc2c(N)nc3ccccc3c21 [Imiquimod] (top concentration 2500 nM) | 0.4 | 0.4 | 0 | 0.6 | 0 | 2.6 | 0 | 1.5 | 0.9 | 0 | 0 | 0.5 | 0 | 0 | 0.4 | 0 | 1.7 | 0 | 0.3 | 4.4
Cc1c(F)cc(C(=O)NC2CC2)cc1-c1ccc(C(=O)NCC(C)(C)C)cn1 [Losmapimod] (top concentration 10000 nM) | 2.72 | -0.18 | -0.18 | 1.92 | 0.42 | 2.32 | -0.18 | -0.18 | 6.92 | -0.18 | -0.18 | 0.12 | -0.18 | -0.18 | 0.82 | -0.08 | 11.5 | -0.18 | 0.42 | -0.18
CC[C@]12C=CCN3CC[C@@]4(c5cc([C@@]6(C(=O)OC)C[C@@H]7C[C@@H](C(C)(F)F)CN(Cc8c6[nH]c6ccccc86)C7)c(OC)cc5N(C)[C@H]4[C@@](O)(C(=O)OC)[C@@H]1OC(C)=O)[C@@H]32 [Vinflunine] (top concentration 1000 nM) | 4.68 | 1.68 | 2.98 | 2.68 | 2.78 | 6.18 | 4.48 | 5.68 | 6.78 | 0.58 | 3.78 | 3.98 | 3.48 | 4.08 | 5.18 | 5.08 | 3.98 | 4.78 | 3.48 | 0.28
O=C(Nc1cccnc1)N1CCC(Cc2cccc(Oc3ccc(C(F)(F)F)cn3)c2)CC1 [PF-3845] (top concentration 10000 nM) | 4.06 | 2.36 | -0.04 | -0.54 | -0.84 | -0.14 | 6.36 | -0.24 | -0.84 | 3.06 | 2.26 | 2.66 | 2.36 | 0.36 | 2.86 | 7.06 | 5.66 | 4.66 | 3.16 | -0.94
Nc1nc2cc(-c3ccc4ncc(C(=O)N5CCOCC5)n4c3)ccc2o1 [Serabelisib] (top concentration 10000 nM) | 2.96 | 4.96 | -0.44 | 4.06 | -0.14 | 0.66 | -1.54 | 2.96 | 2.56 | -1.54 | 0.96 | -0.94 | -1.54 | -1.44 | -1.44 | -1.04 | 6.56 | -1.54 | 1.26 | -1.54
Oc1ccc2c(c1)CC[C@H](c1ccccc1)[C@@H]2c1ccc(OCCN2CCCC2)cc1 [Lasofoxifene] (top concentration 1000 nM) | -1.28 | -1.28 | 2.62 | -1.28 | -0.18 | 7.52 | -1.28 | -1.28 | -1.28 | -1.28 | -1.28 | 1.12 | -1.28 | -1.28 | -1.28 | -1.28 | -1.28 | -1.28 | -1.28 | -1.28
CC(C)n1cnc2c(NCCc3ccc(O)cc3)nc(-c3csc4ccccc34)nc21 [StemRegenin_1] (top concentration 10000 nM) | -0.5 | 1.9 | -1.8 | -0.1 | -1.8 | 6.4 | 1 | -1.8 | -0.5 | 2.7 | -0.2 | 4.4 | 2.5 | -1.8 | 1.1 | 1.5 | -0.6 | -0.7 | -0.2 | -1.8
COc1cccc(-c2ccc(NC(=O)C3=C(C(=O)O)CCC3)c(F)c2)c1 [Vidofludimus] (top concentration 10000 nM) | 6 | 2.6 | 6.9 | 0 | 0 | 3.2 | 8.2 | 6.2 | 2.7 | 12.3 | 3.5 | 5.4 | 3.6 | 3.5 | 3.4 | 5.1 | 8.8 | 3.9 | 6 | 0
Cc1ccc(F)c(NC(=O)Nc2ccc(-c3cccc4[nH]nc(N)c34)cc2)c1 [Linifanib] (top concentration 1000 nM) | -1.12 | -1.12 | -1.12 | -1.12 | -1.12 | -1.12 | -1.12 | -1.12 | -1.12 | -1.12 | -1.12 | -1.12 | -1.12 | -1.12 | -1.12 | -1.12 | -1.12 | -1.12 | -1.12 | -1.12
CC/C(=C(\c1ccccc1)c1ccc(OCCN(C)C)cc1)c1ccccc1 [Tamoxifen] (top concentration 10000 nM) | 1.62 | 2.72 | 5.42 | 1.82 | 1.22 | 6.02 | -1.48 | 5.72 | 1.52 | -1.58 | 0.62 | 2.82 | -0.98 | -3.18 | 0.42 | 1.02 | 4.42 | 0.42 | 3.02 | -0.48
CC[C@H](C)C(=O)O[C@H]1C[C@H](O)C=C2C=C[C@H](C)[C@H](CC[C@@H](O)C[C@@H](O)CC(=O)O)[C@H]21 [Pravastatin] (top concentration 10000 nM) | -0.66 | -0.66 | 0.64 | -0.56 | -0.46 | -0.66 | -0.66 | -0.66 | -0.66 | -0.66 | -0.16 | -0.66 | -0.66 | -0.66 | -0.66 | -0.66 | -0.56 | -0.66 | 0.04 | -0.66
C[C@]12CC[C@@H]3c4ccc(O)cc4C[C@@H](CCCCCCCCC[S+]([O-])CCCC(F)(F)C(F)(F)F)[C@H]3[C@@H]1CC[C@@H]2O (stereo not given in full) [Fulvestrant] (top concentration 1000 nM) | 0 | 2.3 | 0 | 1.3 | 0 | 0.2 | 0 | 0 | 0 | 0 | 0 | 0 | 0 | 0 | 0 | 0 | 0 | 0 | 0 | 2.3
C=CC(=O)N1CCC(Oc2cc3c(Nc4ccc(Cl)c(Cl)c4F)ncnc3cc2OC)CC1 [Poziotinib] (top concentration 1000 nM) | -0.22 | -0.22 | 3.98 | -0.22 | 1.58 | -0.12 | -0.22 | 5.98 | 0.98 | -0.22 | 0.78 | -0.22 | -0.22 | -0.22 | -0.22 | -0.22 | 4.98 | -0.22 | 2.98 | 1.28
C[C@H]1CNCCCN1S(=O)(=O)c1cccc2cncc(F)c12 [Ripasudil] (top concentration 10000 nM) | 2.68 | -0.22 | 1.18 | -0.22 | -0.22 | -0.22 | -0.22 | -0.22 | -0.22 | -0.22 | -0.22 | -0.22 | -0.22 | -0.22 | -0.22 | 1.88 | -0.22 | 0.98 | 4.88 | 0.98
